Reference: patent US20120245108A1, “METHOD OF MODULATING COMPLEMENT FACTOR B (CFB) EXPRESSION IN CELLS” (KAOHSIUNG MEDICAL UNIVERSITY, priority 2011, published 2012)

Key:
JAK/STAT signaling = conditions: Samardzija et al. 2006; cited from earlier work
CFB mRNA = CFB mRNA expression in ARPE-19 cells by real-time RT-PCR; type: cell-based, human; conditions: for UVB-induced CFB mRNA expression: 10 mJ/cm^2 UVB, 24 h, ARPE-19 cells, TA 25 μM, AG490 40 μM in 0.2% DMSO, normalized to GAPDH
Protocol: (§1) ARPE-19 (CRL-2302, human retinal pigment epithelial cells, American Type Culture Collection, Manassas, Va.) cells were cultured in 1:1 mixture of Dulbecco's modified Eagle's medium and HAM F-12 nutrient mixture supplemented with 10% fetal bovine serum at 37° C., 5% CO2, and 90% relative humidity. Confluent cells (90% confluence) were used throughout the experiments. Culture materials were obtained from Gibco-BRL (Rockville, Md.). Tannic acid, AG490 and all other reagents were obtained from Sigma Chemical Co. (St. Louis, Mo.).
(§2) The source of UVB radiation was performed using the EL series of UV lamp (UVP Inc., San Gabriel, Calif., USA). One hundred percent energy emission was at wavelength 302 nm with a radiation intensity of 1.04 mW/cm^2 in a lamp and a target distance of 15 cm was measured by a UVX Digital Radiometer (UVP Inc.).
The total RNA was isolated from ARPE-19 cells and cells exposed to UVB radiation (5-15 mJ/cm^2) for 24 hr using TRIzol Reagent (invitrogen). One μg of total RNA was subject to reverse transcriptase RT-PCR by using RT-PCR kit (Applied Biosystems). The primers used for detecting mRNA for IL-6 were 5′-CCTGCAAG ACCATCGACATG-3′ (forward, SEQ ID NO. 1) and 5′-[…]-3′ (reverse, SEQ ID NO. 2); CFB were 5′-[…]-3′ (forward, SEQ ID NO. 3) and 5′-[…]-3 (reverse, SEQ ID NO. 4); STAT3 were 5′-[…]-3′ (forward, SEQ ID NO. 5) and 5′-[…]-3′ (reverse, SEQ ID NO. 6); JAK2 were 5′-GCTCAGTGGCGGCATGAT-3′ (forward, SEQ ID NO. 7) and 5′-[…]-3′ (reverse, SEQ ID NO. 8); GAPDH were 5′-AACAGCGACACCCATCCTC-3′ (forward, SEQ ID NO. 9) and 5′-[…]-3′ (reverse, SEQ ID NO. 10). Real-time PCR was performed in a Gene Amp 7900® Sequence Detection System SDS (Applied Biosystems, Foster City, Calif., USA) using SYBR® Green PCR Master Mix Applied Biosystems. The relative gene expression is the comparative CT method. Each sample was normalized on the basis of its GAPDH content according to the formula 2^−ΔΔCT.

phospho-STAT3(Tyr705) = assay: Phospho-STAT3(Tyr705) immunoblotting in ARPE-19 cells; type: cell-based, human
Protocol: as §1, §2
Total cell lysates were resolved by 10% sodium dodecyl sulfate-polyacryl amide gel electrophoresis, transferred to membranes and blocked, and then probed phospho-STAT3(Tyr705) and STAT3 (Cell Signaling Technology, Danvers, Mass.) antibodies. To control for protein loading, all blots were probed with GAPDH (Millipore, Billerica, Mass.) as well. The bands were detected using the enhanced chemiluminescence system (Millipore, Billerica, Mass.).

IL-6 = IL-6 protein production in ARPE-19 cell culture supernatants by ELISA; type: cell-based, human; conditions: TA 25 μM, 10 mJ/cm^2 UVB, 24 hours, ARPE-19 cells
Protocol: as §1, §2
ARPE-19 cells were plated about 200,000 cells in a 3-cm dish and cultured for 18-24 hours. Cells were exposed to UVB radiation for 24 hours, 1 ml aliquots of cell culture supernatants were drawn off and frozen at −80° C. ELISAs were carried out with the OptEIA human IL-6 ELISA kit (BD Pharmingen) according to the manufacturer's instructions. […] Freshly diluted rIL-6 which is useful as a standard control was used to generate a standard curve on each plate analyzed. Plates were read at 450 nm using a spectrophotometric plate reader. […]

N#C/C(=C/c1ccc(O)c(O)c1)C(=O)NCc1ccccc1 [AG490, reference compound]
JAK/STAT signaling (JAK/STAT signaling): inhibit | retinal degeneration after bright light exposure (JAK/STAT signaling): prevent | UVB-induced CFB mRNA expression (CFB mRNA): partly attenuated | STAT3 phosphorylation on Tyr705 (phospho-STAT3(Tyr705); AG490 40 μM, data not shown): inhibit

O=C(OC[C@H]1O[C@@H](OC(=O)c2cc(O)c(O)c(OC(=O)c3cc(O)c(O)c(O)c3)c2)[C@H](OC(=O)c2cc(O)c(O)c(OC(=O)c3cc(O)c(O)c(O)c3)c2)[C@@H](OC(=O)c2cc(O)c(O)c(OC(=O)c3cc(O)c(O)c(O)c3)c2)[C@@H]1OC(=O)c1cc(O)c(O)c(OC(=O)c2cc(O)c(O)c(O)c2)c1)c1cc(O)c(O)c(OC(=O)c2cc(O)c(O)c(O)c2)c1 [TA, Tannic acid]
UVB-induced CFB mRNA expression (CFB mRNA): attenuate | CFB expression without UV radiation (CFB mRNA; without UV radiation): reduce | UVB-induced STAT3 phosphorylation on Tyr705 (phospho-STAT3(Tyr705); TA 25 μM, UVB, 24 hours, ARPE-19 (RPE) cells): substantially attenuated | STAT3 phosphorylation without UV radiation (phospho-STAT3(Tyr705); without UV radiation): reduce | attenuation of UVB-induced IL-6 protein production (IL-6): approximately 40%
